Patent US5455240A, “Modulators of pneumococcal adhesion to cellular targets involving the platelet activating factor receptor, and uses thereof” (The Rockefeller University, priority 1994, dated 1995)

Experiments:
[1] = tested on: type II lung cells and vascular endothelial cells; test: Pneumococcal adherence to EC and LC, results stated for both cell types together; type: cell-based, human; details: for inhibition of adherence to resting cells by single sugars: resting EC and LC; for IC50: Homo sapiens, Endothelial cell, 0.5 h, activated cells (IL-1α-stimulated LC, TNFα-stimulated EC), R6 10^7 cfu/ml, 30 min, 37° C., read-out: ED50 of inhibition of pneumococcal adherence
Method: (§1) FIG. 2. Effect of PAF receptor antagonists on pn[…] to IL-1α-stimulated cultured human type II lung cells (A) and TNFα-stimulated vascular endothelial cells (B). Cytokine stimulated monolayers were incubated (10 min, 37° C.) with either albumin buffer (--) or increasing concentrations of the PAF receptor antagonists L659,989 ( ) and WEB 2086 ( ) and R6 pneumococci (10^7 cfu/ml) allowed to adhere to the monolayers for 30 min at 37° C. Control adherence in the absence of cytokine stimulation is indicated by a horizontal dotted line (------). Adherent bacteria were determined as the number of attached bacteria per 100 lung or endothelial cells. Results are the means ±SD for duplicate wells in at least six independent experiments. *p<0.05 compared with cytokine-stimulation in the absence of antagonists.
FIG. 4. Effect of simple sugars on adherence of R6 to resting and cytokine-stimulated human cultured type II pneumocytes (A) and vascular endothelial cells (B). R6 (10^7 cfu/ml) was exposed to various simple sugars (15 min, room temperature) and then co-incubated with either resting (.quadrature.) or cytokine-stimulated ( ) monolayers for 30 min. Pn[…] to a designated sugar was defined as bacterial adherence to 100 host cells in the absence of sugar-bacterial adherence to 100 host cells in the presence of sugar. Results are the means ±SD for duplicate wells in at least six independent experiments. Glc=D-glucose, Gal=D-galactose, Fuc=L-fucose, GalNAc=N-acetyl-D-galactosamine, GlcNAc=N-acetyl-D-glucosamine, Man=D-mannose, NANA=sialic acid, Lac=lactose and 2-ADGG=2-acetamido-2-deoxy-3-O-B-D-galactopyranosyl-D-galactopyranose.
(§2) The contribution of carbohydrate recognition to pn[…] to cytokine-stimulated EC and LC was tested using competition assays performed in the presence of monosaccharides (1-50 mM) or glycoconjugates (0.003-2 mM) the role of carbohydrate recognition in pn[…] is disclosed more fully in copending application Ser. No. 08/254,577, Attorney Docket No. 600-1-084, filed Jun. 6, 1994 by Tuomanen and Cundell, entitled "MODULATORS OF PN[…] TO PULMONARY AND VASCULAR CELLS AND DIAGNOSTIC AND THERAPEUTIC APPLICATIONS"; hereinafter Tuomanen and Cundell. Bacteria were pre-incubated for 15 min at room temperature with final concentrations of the sugars as stated, centrifuged (3,000 rpm, 3 min) to remove unbound sugar, resuspended to 1×10^7 cfu/ml in albumin buffer and added to the adherence assay. […] Adherence of bacteria lacking choline to activated cells in the presence and absence of GlcNAc was 121 ±11 and 119 ±5/100 EC and 137 ±7 and 135 ±13/100 LC, respectively.

[2] = tested on: type II lung epithelial cells (LC); test: Pneumococcal adherence to human type II lung epithelial cell monolayers, resting or IL-1α-stimulated; type: cell-based; details: for pneumococcal adherence to resting LC in presence of antagonist: 1 μM antagonist, without antagonist 270 ±10; for Number of pneumococci adherent to designated receptor on host cell: 2 mM sugar, adherence per 100 host cells without sugar minus with sugar
Method: (§3) FIG. 1. Adherence of pneumococci to cytokine-stimulated human cultured type II pneumocytes (A) and vascular endothelial cells (B). Monolayers in 60 well Terasaki dishes were stimulated with IL-1α (type II lung cells; 5 ng/ml, 4 h at 37° C.; Rozdzinski et al., 1993, J. Exp. Med. 178: 917) and TNFα (vascular endothelial cells; 10 ng/ml, 3 h at 37° C.; Elias et al., 1990, Am. J. Respir. Cell. Mol. Biol. 3: 13). Pneumococci R6 and AII were cultured for 18 h on trypticase soy agar containing 3% sheep blood, labelled with fluorescein isothiocyanate and adjusted to 10^5 -10^7 cfu/ml (Geelen et al., 1993, Infect. Immun. 61: 1538), and co-incubated with the monolayers. Control adherence in the absence of cytokine is indicated by a hatched line (-----). Bacteria adherent to cytokine-stimulated (.cndot.) and resting (.smallcircle.) monolayers were determined as the number of attached bacteria per 100 lung or endothelial cells. Results are the means ±SD for duplicate wells in at least six independent experiments.
as §1
(§4) The adherence of S. pneumoniae encapsulated strain AII (serotype 2) and the isogeneic unencapsulated strain R6 to human vein endothelial cells (EC) and type II lung epithelial cells (LC) was quantitated before and after stimulation of the eukaryotic cells with IL-1 or TNF. Adherence to EC was increased […] by TNFα stimulation (FIG. 1). […] (increase from 240 ±10 to 363 ±13 bacteria/100 EC; increase from 270 ±15 to 355 ±18 bacteria/100 LC). Adherence was not affected by the presence of a type II capsule. At an input concentration of 10^7 cfu/ml, adherence of AII and R6 to 100 TNFα-stimulated EC was 405 ±14 and 400 ±10, respectively.
as §2

[3] = tested on: human vein endothelial cells (EC); test: Pneumococcal adherence to human vein endothelial cell monolayers, resting or TNFα-stimulated; type: cell-based; details: for pneumococcal adherence to resting EC in presence of antagonist: 1 μM antagonist, without antagonist 240 ±15; for Number of pneumococci adherent to designated receptor on host cell: 2 mM sugar, adherence per 100 host cells without sugar minus with sugar
Method: as §3, §1, §4, §2

PAF receptor [4] = molecular target: T1, PAF receptor (Homo sapiens, UniProt P25105); test: Activation of PAF receptor-transfected COS-7 cells, 3H incorporation in inositoltriphosphate (IP3); type: cell-based; design: IP3 (3H-inositol) response
Method: FIG. 6. Pneumococci activate the PAF receptor. COS cells in a monolayer were treated with control, platelet activating factor ([…]), pneumococci (10^8 bacteria/ml), ethanolamine-cultured pneumococci (10^8 bacteria/ml), PAF+L659,989, and pneumococci+L659,989. Activation was measured by detecting the level of incorporation of ^3 H in inositoltriphosphate, which is reported as the percentage above background .
Activation of COS-7 cells transfected with the PAF receptor was assayed. The cells were exposed to medium (control), platelet activating factor ([…]), pneumococci (10^8 bacteria/ml), and ethanolamine cultured pneumococci (10^8 bacteria/ml). Inhibition of activation by PAF and pneumococci with the PAF receptor antagonist L659,989 (2 μg/ml) was also measured. Cellular activation was measured by detecting incorporation of ^3 H in inositoltriphosphate (IP3).

PAF receptor [5] = molecular target: T1, PAF receptor; test: Pneumococcal adherence to U937 and COS-7 cells transfected with PAF receptor; type: cell-based; design: pneumococcal adherence; details: for pneumococcal adherence to PAF receptor-transfected cells: transfected COS-7 and U937 cells, antagonists 1 μM (FIG. 3); for adherence of R6 to U937 cells in presence of glycoconjugate: PAF receptor-transfected U937, input 10^7 cfu/ml, 296 ±30 without glycoconjugates
Method: FIG. 3. Effect on pneumococcal adherence to PAF receptors of receptor deglycosylation, the antagonists WEB 2086 and L659,989 (1 μM) and removal of phosphorylcholine from the pneumococcal cell wall (Tuomanen et al., 1985, J. Infect. Dis. 151: 859).
Recently, the PAF receptor was cloned from human leukocytes and successfully transfected into kidney epithelial cells (Kunz et al, supra). To determine if pneumococci could directly adhere to PAF receptors, human U937 cells (ATCC CRL1593; embryonic kidney epithelial cells stably transfected with the SV40 large T-antigen) and COS-7 cells (ATCC CRL 1651; monkey kidney) were transfected with the human PAF receptor cDNA (Gerard and Gerard, 1994, J. Immunol 152: 793) or the cDNA containing a Flag construct (Kunz et al., supra) by electroporation (Kunz et al., supra) or the addition of cationic liposomes (Gerard and Gerard, supra). […] Controls cells were transfected with vector alone. Monolayers of transfected and control cells were prepared in 60-well Terasaki dishes. Monolayers of COS-7 and U937 cells are prepared in 48-well culture dishes using the methods previously described for EC and LC (Geelen et al., 1993, Infect. Immun. 61: 1538).

PAF receptor [6] = molecular target: T1, PAF receptor; design: IP3 (3H-inositol) response; details: Hwang and Lam, 1991; cited from earlier work
[7] = monosaccharides 1-50 mM (FIG. 4)

T1 sequence (P25105 whole entry): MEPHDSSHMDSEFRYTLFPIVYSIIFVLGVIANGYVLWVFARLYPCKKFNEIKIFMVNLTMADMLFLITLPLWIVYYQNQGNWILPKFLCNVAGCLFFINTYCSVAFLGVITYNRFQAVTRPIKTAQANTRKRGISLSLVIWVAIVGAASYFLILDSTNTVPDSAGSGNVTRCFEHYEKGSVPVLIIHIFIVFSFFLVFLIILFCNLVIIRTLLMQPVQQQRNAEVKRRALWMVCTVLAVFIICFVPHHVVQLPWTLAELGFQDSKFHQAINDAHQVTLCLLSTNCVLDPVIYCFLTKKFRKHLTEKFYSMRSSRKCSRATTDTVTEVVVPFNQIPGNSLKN

CC(=O)N[C@H]1C(O)O[C@H](CO)[C@H](O)[C@@H]1O (stereo partly drawn) [GalNAc, N-acetyl-D-galactosamine]
inhibition of adherence to resting cells by single sugars [1, 7]: effective in inhibiting adherence to resting cells

CCCOc1c(OC)cc([C@@H]2CC[C@@H](c3cc(OC)c(OC)c(OC)c3)O2)cc1S(C)(=O)=O (relative stereo) [L659,989]
IC50 [1]: 50 nM | pneumococcal adherence to resting LC in presence of antagonist ([2]; resting LC): 272 ±8 bacteria | pneumococcal adherence to resting EC in presence of antagonist ([3]; resting EC): 237 ±9 bacteria/EC | inhibition of PAF-mediated activation (PAF receptor [4]; L659,989 2 μg/ml, PAF 100 mM): almost completely inhibited | inhibition of pneumococcal-mediated activation (PAF receptor [4]; L659,989 2 μg/ml, pneumococci 10^8 bacteria/ml): almost completely inhibited | pneumococcal adherence to PAF receptor-transfected cells (PAF receptor [5]): inhibit pneumococcal adherence | oral activity (PAF receptor [6]): orally active

globoside
Number of pneumococci adherent to designated receptor on host cell ([2]; LC + IL-1α, control 355 ± 18): 200 ± 11 | Number of pneumococci adherent to designated receptor on host cell ([2]; resting LC, control 270 ± 15): 140 ± 10 | Number of pneumococci adherent to designated receptor on host cell ([3]; EC + TNFα, control 415 ± 25): 200 ± 9 | Number of pneumococci adherent to designated receptor on host cell ([3]; resting EC, control 240 ± 10): 110 ± 8 | adherence of R6 to U937 cells in presence of glycoconjugate (PAF receptor [5]): 318 ±30

CCCCCCCCCCCCCCCCOCC(COP(=O)([O-])OCC[N+](C)(C)C)OC(C)=O (centres unmarked) [PAF, platelet activating factor]
3H incorporation in IP3 (receptor activation) (PAF receptor [4]; PAF 100 mM, transfected COS-7 cells (FIG. 6)): significant ^3 H incorporation in IP3 | pneumococcal adherence to PAF receptor-transfected cells (PAF receptor [5]): inhibit pneumococcal adherence

O=C[C@@H](O)[C@@H](O)[C@H](O)[C@H](O)CO [D-mannose]
inhibition of adherence to resting cells by single sugars [1, 7]: effective in inhibiting adherence to resting cells

asialo-GM2
Number of pneumococci adherent to designated receptor on host cell ([2]; LC + IL-1α, control 355 ± 18): 205 ± 9 | Number of pneumococci adherent to designated receptor on host cell ([2]; resting LC, control 270 ± 15): 140 ± 10 | Number of pneumococci adherent to designated receptor on host cell ([3]; EC + TNFα, control 415 ± 25): 180 ± 13 | Number of pneumococci adherent to designated receptor on host cell ([3]; resting EC, control 240 ± 10): 140 ± 12 | adherence of R6 to U937 cells in presence of glycoconjugate (PAF receptor [5]): 327 ±39

TNFα
increase of pneumococcal adherence to EC by cytokine stimulation ([3]; TNFα 10 ng/ml, 3 h (FIG. 1)): ~ 70%

CC(=O)N[C@H]1C(O)O[C@H](CO)[C@@H](O)[C@@H]1O (stereo partly drawn) [GlcNAc, N-acetyl-D-glucosamine]
inhibition of adherence to activated cells by single sugars ([1]; cytokine-stimulated EC and LC, monosaccharides 1-50 mM (FIG. 4)): became effective in activated cells | adherence of bacteria lacking choline to activated LC in presence of sugar ([2]; ethanolamine-grown pneumococci, activated LC, 135 ±13 without sugar): 137 ±7 /100 LC | adherence of bacteria lacking choline to activated EC in presence of sugar ([3]; ethanolamine-grown pneumococci, activated EC): 121 ±11 /100 EC | decrease of pneumococcal adherence to transfected cells (PAF receptor [5]; transfected COS-7 and U937 cells (FIG. 3)): about 40%

Cc1nnc2n1-c1sc(CCC(=O)N3CCOCC3)cc1C(c1ccccc1Cl)=NC2 [WEB 2086]
IC50 [1]: 10 nM | pneumococcal adherence to resting LC in presence of antagonist ([2]; resting LC): 264 ±8 bacteria | pneumococcal adherence to resting EC in presence of antagonist ([3]; resting EC): 224 ±12 bacteria/EC | pneumococcal adherence to PAF receptor-transfected cells (PAF receptor [5]): inhibit pneumococcal adherence

B1: IL-1: interleukin-1, cytokine used to stimulate cells (protein, UniProt P01583 113-271, looked up)
Interleukin-1 alpha: SAPFSFLSNVKYNFMRIIKYEFILNDALNQSIIRANDQYLTAAALHNLDEAVKFDMGAYKSSKDDAKITVILRISKTQLYVTAQDEDQPVLLKEMPEIPKTITGSETNLLFFWETHGTKNYFTSVAHPNLFIATKQDYWVCLAGGPPSITDFQILENQA
pneumococcal adherence to LC after cytokine stimulation ([2]; IL-1 stimulation, resting 270 ±15): 355 ±18 bacteria/100 LC | pneumococcal adherence to EC after cytokine stimulation ([3]; IL-1 stimulation, resting 240 ±10): 363 ±13 bacteria/100 EC
